Experimental data as given in patent publication US7638145B2, “Cultivated agarwood” (Regents of the University of Minnesota, priority 2001, dated 2009).

How the values were obtained:
Type in all cases: in vivo
[1] = test system: Aquilaria trees; experiment: Drill wounds treated with different compounds to stimulate agarwood production (Example 5); design: Area of discoloration: unit not given here; conditions: for effect on area of discoloration (in words): Example 5, at the concentrations tested; for Area of discoloration: approx 0.1-0.2 g per drill wound; for microscopic observations of cells around treated wounds: Example 5; for agarwood induction versus control wounds (in words): Example 5 conclusion
Protocol: To test if different types of compounds could stimulate agarwood production, ⅝ inch drill wounds were made approximately 5 cm into the main trunk of young plantation trees and different materials used to treat the drill wounds. Chemicals used were from Sigma Chemicals Inc. St. Louis, Mo. or Mallinckrodt Inc. Paris, Ky. One drill wound per tree received no treatment and others received one of the following treatments:
Chitosan—purified chitin approximately 0.2 g of chitin was added per wound
Formic acid—approximately 0.1 g of formic acid was added per wound
Sodium chloride—approximately 0.2 g added per wound
Cellobiose—approximately 0.2 grams added per wound
Lime—approximately 0.1 g calcium carbonate added per wound
Trees were harvested after 12, 18 and 21 months.

[2] = test system: Aquilaria trees; experiment: Wound types and treatments on plantation trees, Phu Quoc Island, image analyzer area (Example 8); conditions: for effect on area of discoloration and agarwood resin (in words): Example 8 conclusion; for Area of discoloration/resin: after 15 months, longitudinal plane, mean of 8 wounds, approx 0.3 g of agent mixed with sterile Aquilaria sawdust, drill wound plus 5x5 cm bark removed
From the text: Fourteen plantation grown trees on Phu Quoc Island were used to test different treatments. Each tree received 8 wounds that were spiraled up the main trunk of the tree separated by approximately 20 cm. A range of different types of wounds and treatments as well as controls were made on each tree. […] Trees were harvested after 15 months and taken to the laboratory for analyses.
Treatments Included: • 1. A surface wound approximately 5×5 cm was made by cutting the bark and removing the bark tissue to expose the xylem. No drill hole was made. • 3. A ⅝ inch drill wound was made approximately 5 cm into the xylem and a 5×5 cm section of the bark removed around the drill hole and approximately 0.3 g sterile Aquilaria sawdust added to the drill wound. • 4. Same as #3 but with approximately 0.3 g of a 1:1 ratio of ferrous chloride and sterile Aquilaria sawdust added to the drill wound. • 5. Same as #3 with approximately 0.3 g of a 1:2 ratio of NaCl and sterile Aquilaria sawdust added to the drill wound. • 6. Same as #3 but with approximately 0.3 g of a 1:4 ratio of Difco yeast extract and sterile Aquilaria sawdust. • 7. Same as #3 but with approximately 0.3 g of a 1:1 ratio of sodium bisulfite and sterile Aquilaria sawdust. • 8. Same as #3 but with approximately 0.3 g of a 1:2:4 ratio of Difco nutrient broth: Difco malt extract: sterile Aquilaria sawdust.
After 15 months, 8 trees were harvested and brought to the laboratory for analyses. The area of discoloration and resin formation was determined by splitting the tree through the wounded region and area affected measured using an image analyzer. Area (cm^2) was determined for all wounds in the longitudinal plane. Each value is a mean of 8 wounds.

[3] = test system: Aquilaria trees; experiment: Scribed drill wounds with Basidiomycota cultures or chemicals in sawdust, Kon Tum and Nui Cam (Example 9); conditions: for effect on area of discoloration and agarwood resin (in words): Example 9 conclusion, sodium bisulfite 1:4, salicylic acid 1:2, ferrous chloride 1:4 in sawdust; for Area of discoloration: after 15 months, mean of two trees, chemicals approx 0.5 g in sterile Aquilaria sawdust
From the text: Young trees growing at two sites, in home gardens and on agricultural land (Kon Tum, Vietnam and Nui Cam, Vietnam), received 8 wounds per tree. Drill wounds ⅝ inch diameter were drilled approximately 5 cm into the main trunk of each tree in a spiral fashion separated by approximately 20 cm. All drill wounds were scribed to remove a 5×5 cm area of bark around the wound. Fungal treatments consisted of three different types of Basidiomycota obtained from Aquilaria trees in Vietnam. These isolates were not identified to genus but culture morphology indicated they were different genera. Cultures were grown on sterile rice supplemented with malt extract. Cultures were grown for three weeks before inoculation.
Treatments Included: • 1. Control wound receiving sterile rice • 2. Fungal culture 97-14-5 • 3. Fungal culture 97-13-7 • 4. Fungal culture 97-11-25 • 5. Control wound receiving 5 g sterile Aquilaria sawdust • 6. Approximately 0.5 g of a 1:4 ratio of sodium bisulfite and sterile Aquilaria sawdust • 7. Approximately 0.5 g of a 1:2 ratio of salicylic acid in sterile Aquilaria sawdust • 8. Approximately 0.5 g of a 1:4 ratio of ferrous chloride in sterile Aquilaria sawdust
After 15 months two trees were harvested from each location and brought to the laboratory for analyses. The mean area for each type of wound was calculated.

| SMILES | effect on area of discoloration (in words) [1] | Area of discoloration ([1]; after 12 months) | Area of discoloration ([1]; after 18 months) | Area of discoloration ([1]; after 21 months) | effect on area of discoloration and agarwood resin (in words) [2] | Area of discoloration/resin [2] [cm^2] | effect on area of discoloration and agarwood resin (in words) [3] | Area of discoloration ([3]; Location Kon Tum) [cm^2] | Area of discoloration ([3]; Location Nui Cam) [cm^2] | microscopic observations of cells around treated wounds [1] | agarwood induction versus control wounds (in words) [1] |
| --- | --- | --- | --- | --- | --- | --- | --- | --- | --- | --- | --- |
| O=C[C@H](O)[C@@H](O)[C@H](O[C@@H]1O[C@H](CO)[C@@H](O)[C@H](O)[C@H]1O)[C@H](O)CO [Cellobiose] | do not increase the area of discoloration | 9.9 | 20.3 | 7.4 | – | – | – | – | – | – | – |
| [Cl][Fe][Cl] [Ferrous chloride, ferrous chloride] | – | – | – | – | increase the area of discoloration within the tree and the amount of agarwood resin formed | 112.5 | did not produce large areas of discoloration | 18.4 | 23.3 | – | – |
| O=CO [Formic acid] | – | 28.5 | 18.6 | 31.8 | – | – | – | – | – | react extensively and phloem cells are filled with resin | induce greater amounts of agarwood than the control wounds |
| O=C([O-])[O-].[Ca+2] [Lime, calcium carbonate] | do not increase the area of discoloration | 10.0 | 18.7 | 9.7 | – | – | – | – | – | – | – |
| [Cl-].[Na+] [NaCl, Sodium chloride] | – | 49.3 | 44.7 | 36.4 | increase the area of discoloration within the tree and the amount of agarwood resin formed | 48.1 | – | – | – | react extensively and phloem cells are filled with resin | induce greater amounts of agarwood than the control wounds |
| O=C(O)c1ccccc1O [Salicylic acid, salicylic acid] | – | – | – | – | – | – | did not produce large areas of discoloration | 16.9 | 25.5 | – | – |
| O=S([O-])O.[Na+] [Sodium bisulfite, sodium bisulfite] | – | – | – | – | increase the area of discoloration within the tree and the amount of agarwood resin formed | 182.0 | reduced amount of discoloration and agarwood resin | 52.3 | 56.9 | – | – |
